These results are taken from ChEMBL document CHEMBL5120857, “Rational design, synthesis and biological evaluation of dual PARP-1/2 and TNKS1/2 inhibitors for cancer therapy” (Eur J Med Chem, 2022).

Series [1] has as its system HCT-116. Kind of series: Induction of cell cycle arrest in human HCT-116 cells assessed as G0/G1 phase cells at 5 uM incubated for 3 days by propidium iodide staining based flow cytometry (reference value: 68.35 %). Type of series: functional. Conditions: time 3 day. (In general: In flow cytometry, cells or beads pass a laser one at a time.)
Series [2] deals with HCT-116. Kind of series: Induction of cell cycle arrest in human HCT-116 cells assessed as S phase cells at 5 uM incubated for 3 days by propidium iodide staining based flow cytometry (reference value: 11.26 %). Conditions: time 3 day. Type of series: functional.
A further series has as its system MDA-MB-231. The series is described as follows: Antiproliferative activity against human MDA-MB-231 cells assessed as inhibition of cell growth incubated for 7 days by MTT assay. Type of series: functional, cell-based. Conditions: MDA-MB-231, 168 h. In general terms: Tetrazolium dyes change colour on reduction, which living cells bring about.
The test system of series [3] is HCT-116. Kind of series: Induction of cell cycle arrest in human HCT-116 cells assessed as G2/M phase cells at 5 uM incubated for 3 days by propidium iodide staining based flow cytometry (reference value: 68.35 %). Type of series: functional. Conditions: time 3 day.
For series [4], the system named is HCT-116. Kind of series: Induction of apoptosis in human HCT-116 cells assessed as early apoptotic cells at 5 uM incubated for 3 days by annexinV-FITC/propidium iodide staining based flow cytometry (reference value: 7.67 %). Conditions: time 3 day. Type of series: functional.
Series [5] has as its system HCT-116. The series is described as follows: Inhibition of Wnt/beta-Catenin signaling in human HCT-116 cells assessed as decrease in cyclin D1 levels at 10 uM by Western blot analysis. It counts as cell-based. In general terms: A western blot detects proteins with antibodies after separation by electrophoresis.
Series [6] is described as follows: Cytotoxicity against mouse AML12 cells assessed as reduction in cell viability incubated for 7 days by MTT assay. Type of series: toxicity, cell-based. Conditions: time 7 day.
Series [7] relates to HCT-116. Kind of series: Antiproliferative activity against human HCT-116 cells assessed as inhibition of cell growth incubated for 7 days by MTT assay. Type of series: functional, cell-based. Conditions: HCT-116, 168 h.
For series [8], the system named is HCT-116. Kind of series: Antitumor activity against human HCT-116 cells xenografted in BALB/c nude mouse assessed as tumor growth inhibition at 50 mg/kg, ip administered once daily for 28 days. It counts as functional. Conditions: time 28 day.
For series [9], the system named is HCT-116. Kind of series: Induction of apoptosis in human HCT-116 cells assessed as late apoptotic cells at 5 uM incubated for 3 days by annexinV-FITC/propidium iodide staining based flow cytometry (reference value: 8.71 %). Conditions: time 3 day. Type of series: functional.
For series [10], the system named is HCT-116. Kind of series: Induction of apoptosis in human HCT-116 cells assessed as viable cells at 5 uM incubated for 3 days by annexinV-FITC/propidium iodide staining based flow cytometry (reference value: 60.0 %). It counts as functional. Conditions: time 3 day.
Series [11] has as its system HCT-116. The series is described as follows: Inhibition of PARP in human HCT-116 cells assessed as decrease in pADPr levels at 10 uM by Western blot analysis. Type of series: cell-based.
The subject of another series is MDA-MB-468. The series is described as follows: Antiproliferative activity against human MDA-MB-468 cells assessed as inhibition of cell growth incubated for 7 days by MTT assay. It counts as functional, cell-based. Conditions: MDA-MB-468, 168 h.
Series [12] has as its system HCT-116. The series is described as follows: Induction of apoptosis in human HCT-116 cells assessed as necrotic cells at 5 uM incubated for 3 days by annexinV-FITC/propidium iodide staining based flow cytometry (reference value: 3.65 %). Type of series: functional. Conditions: time 3 day.
Series [13] relates to HCT-116. The series is described as follows: Inhibition of Wnt/beta-Catenin signaling in human HCT-116 cells assessed as increase in axin2 levels at 10 uM by Western blot analysis. Type of series: cell-based.

pIC50: −log10 of the molar value. The source made the active and inactive calls. The rule behind the calls is not given here.

A word on the pIC50: it is the negative decadic logarithm of the IC50, by convention in mol/L. One may read the CC50 as the concentration giving 50% cytotoxicity. In the case of `O=c1[nH]nc2c3c(cccc13)N=C(CN1Cc3ccccc3C1)N2` [2X-121], the Activity in the series with HCT-116 [1] amounted to 64.78%; with HCT-116 [2], 11.73%; with HCT-116 [3], 23.49%; in the series on HCT-116 [4] it was 6.11%; in the series with HCT-116 [9] it was 12.6%; with HCT-116 [12] it was 6.45%. The pIC50 in the series on MDA-MB-231 is 5.54; in the series with HCT-116 [7] it was 5.17; in the series with MDA-MB-468 it was 5.38. For the same compound, the inhibition entry in the series on HCT-116 [5], in the series on HCT-116 [11] and in the series with HCT-116 [13] was “Active” each time. For the same compound, the 50% cytotoxic concentration (CC50) at 168 h in series [6] amounted to 1.39 µM. For the same compound, the inhibition in vivo at 50 mg/kg in the series with HCT-116 [8] (Mus musculus, HCT-116, 672 h, read-out: TGI) is 20.2%. Besides, the viability at 5 µM with HCT-116 [10] (Homo sapiens, HCT-116, 72 h, read-out: Activity) was 74.8%.
As a reminder, the TGI is how far tumour growth fell short of that in controls. As for `O=C(c1cc(Cc2n[nH]c(=O)c3ccccc23)ccc1F)N1CCN(C(=O)C2CC2)CC1` [OLAPARIB], the Activity with HCT-116 [1] was determined as 58.46%; in the series with HCT-116 [2], 7.31%; in the series with HCT-116 [3] it was 34.23%; in the series on HCT-116 [4], 12.9%; in the series on HCT-116 [9], 14.3%; with HCT-116 [10], 68.8%. In the series on HCT-116 [12], the Activity turned out to be 4.03%. Also, the pIC50 was 5.27 with MDA-MB-231, 5.25 with HCT-116 [7] and 5.60 with MDA-MB-468. Further, the CC50 at 168 h in series [6] stood at 31.1 µM. Also, the TGI with HCT-116 [8] is on record as 15.36%. In the series with HCT-116 [11], the inhibition entry is “Active”.
